{"source": "patent US8309590B2", "about": "“Triazol compounds for treating biofilm formation” (Novartis AG, priority 2007, dated 2012)", "key": {"[1]": {"tested_on": "P. aeruginosa strain PAO1", "experiment": "MIC of tobramycin and colistin with and without Compound I", "format": "cell-based, Pseudomonas aeruginosa", "details": "Compound I 1339 μM, MMS + 10 μM FeCl3, aerobic and anaerobic atmospheres", "method": "The minimal inhibitory concentrations (MICs) of the aminoglycosides gentamycin and tobramycin are determined under aerobic and anaerobic conditions in the presence of no added iron or 30 μM iron, with or without Compound I, e.g. and/or with varying concentrations of Compound I). MICs are determined in MMS+10 μM FeCl3 supplemented with Compound I (1339 μM) (solid line) and without Compound I (dashed line). Values shown represent the mean±SD of a representative experiment with each condition tested in duplicate. The […] inhibitory concentrations (MICS) of two antibiotics commonly used antibiotics to treat CF individuals, tobramycin and colistin, are tested against P. aeruginosa. This is done in MMS+10 μM FeCl3 with and without Compound I (1339 μM) under aerobic and anaerobic atmospheres (FIG. 4)."}, "[2]": {"tested_on": "exotoxin A (ETA) production by P. aeruginosa", "experiment": "virulence factor production: exotoxin A", "format": "cell-based, Pseudomonas aeruginosa", "details": "Compound I 1339 μM, MMS + 10 μM FeCl3, anaerobic, 24 h"}, "[3]": {"tested_on": "phospholipase C production by P. aeruginosa", "experiment": "virulence factor production: phospholipase C", "format": "cell-based, Pseudomonas aeruginosa", "details": "Compound I 1339 μM, MMS + 10 μM FeCl3, anaerobic, 24 h"}, "P. aeruginosa biofilm": {"tested_on": "P. aeruginosa biofilm", "experiment": "short-term borosilicate glass tube biofilm model (OD 570 nm)", "format": "cell-based, Pseudomonas aeruginosa", "method": "For this purpose, two short-term biofilm models relevant for the early stages of biofilm formation are used: borosilicate tubes and cover-slip method. In both models, the biofilm growth is studied with or without Compound I under either aerobic or anaerobic conditions and with or without added iron, i.e. 0, 10, 30 and 50 μM iron. The anti-biofilm effects of Compound I are looked at according to the standard methods, i.e. optical density, confocal imaging software, […] program, to allow analysis of biofilm structure in a 3 dimensional perspective. The imaging system and use of BacLight LIVE/DEAD staining (Molecular Probes) in the cover-slip experiments allow to look at the effects on both bacterial microcolonies and biofilm structure. Different concentrations of Compound I are assessed for their effect on aerobic and anaerobic (A) growth and (B) biofilm levels. Medium used is MMS supplemented with 0 or 10 μM FeCl3, as indicated (37° C., 24 h). Values shown represent the mean±SD of one representative experiment with 3 tubes per experiment. Different concentrations of Compound I are assessed for their effect on aerobic and anaerobic (A) growth and (B) biofilm levels. Medium used is MMS supplemented with 10 μM FeCl3 (37° C., 24 h). […] The effect of Compound I (1339 μM) on biofilm development in different iron concentrations, without Compound I (black columns) and with Compound I, 1339 μM (grey columns). […] The effects of Compound I on planktonic growth and biofilm development re assessed in the short-term borosilicate glass tube biofilm model. In this model, a biofilm is grown on a glass surface, and this is subsequently stained and solubilized. The optical density (OD: 570 nm) of the solution corresponds with the level of biofilm development. Using this model, bacterial growth and biofilm levels are determined after incubation (24 h, 37° C.) in minimal medium supplemented with succinate (MMS)+10 μM FeCl3 (aerobic and anaerobic atmospheres). […] It is investigated whether Compound I is impairing anaerobic biofilm development by directly reducing the level of iron in the medium, or whether it is acting by an iron-independent mechanism. Compound I at a concentration of 1339 μM is tested to see if it continued to impair anaerobic biofilm development as the concentration of iron is increased in the culture medium."}, "P. aeruginosa": {"tested_on": "P. aeruginosa", "experiment": "planktonic growth in borosilicate glass tube model (OD 570 nm)", "format": "cell-based, Pseudomonas aeruginosa", "method": "Growth with or without Compound I, e.g. at concentrations achieved in peripheral blood, under aerobic and anaerobic conditions with no added iron, 10, 30 and 50 μM iron. […] The effect of bacterial growth is determined using a standard method that involves inoculation of aliquots, e.g. 500 μL, of around 10^6 bacteria in minimal media with succinate into borosilicate glass tubes, e.g. 12×75 mm, that are them incubated under aerobic and anaerobic conditions, e.g. at 37° C. Each experiment is undertaken in triplicate and each borosilicate tube is removed at regular intervals, e.g. 0, 4, 8, 12, 16, 20 and 24 hours and the optical density at 570 nm of the culture used as an indicator of the level of growth. Anaerobic culture conditions are generated using the Anaerogen™ (Oxoid) system. For anaerobic experiments, parallel cultures are set up so that cultures are not transiently exposed to oxygen, i.e. seven parallel cultures to allow sampling at the required times. Different concentrations of Compound I are assessed for their effect on aerobic and anaerobic (A) growth and (B) biofilm levels. Medium used is MMS supplemented with 0 or 10 μM FeCl3, as indicated (37° C., 24 h). Values shown represent the mean±SD of one representative experiment with 3 tubes per experiment. Different concentrations of Compound I are assessed for their effect on aerobic and anaerobic (A) growth and (B) biofilm levels. Medium used is MMS supplemented with 10 μM FeCl3 (37° C., 24 h). […] The effects of Compound I on planktonic growth and biofilm development re assessed in the short-term borosilicate glass tube biofilm model. In this model, a biofilm is grown on a glass surface, and this is subsequently stained and solubilized. The optical density (OD: 570 nm) of the solution corresponds with the level of biofilm development. Using this model, bacterial growth and biofilm levels are determined after incubation (24 h, 37° C.) in minimal medium supplemented with succinate (MMS)+10 μM FeCl3 (aerobic and anaerobic atmospheres)."}, "solubility in MMS medium": {"experiment": "solubility in MMS medium", "format": "physicochemical", "details": "MMS medium (pH 7.0)"}, "[4]": {"details": "Compound I 0-100 μM, aerobic, MMS + 10 μM FeCl3, 24 h, 37° C."}, "[5]": {"details": "Compound I 0-100 μM, anaerobic, MMS + 10 μM FeCl3, 24 h, 37° C."}, "[6]": {"details": "higher concentration of Compound I (up to 6695 μM, via PEG 400), aerobic"}, "[7]": {"details": "higher concentration of Compound I (up to 6695 μM, via PEG 400), anaerobic, P<0.05"}}}
{"smiles": "O=C(O)c1ccc(-n2nc(-c3ccccc3O)nc2-c2ccccc2O)cc1", "note": "[Compound I, 4-[3,5-Bis-(2-hydroxyphenyl)-[1,2,4]-triazol-1-yl]benzoic acid]", "values": [{"measurement": "effect on MIC of colistin", "setting": "[1]", "result": "does not alter the MIC"}, {"measurement": "effect on MIC of tobramycin", "setting": "[1]", "result": "does not alter the MIC"}, {"measurement": "effect on iron-induced increase of exotoxin A (ETA) production", "setting": "[2]", "result": "increase is negated"}, {"measurement": "effect on iron-induced increase of phospholipase C production", "setting": "[3]", "result": "increase is negated"}, {"measurement": "effect on aerobic biofilm development", "setting": "P. aeruginosa biofilm; [4]", "result": "does not impair"}, {"measurement": "effect on anaerobic biofilm development", "setting": "P. aeruginosa biofilm; [5]", "result": "does not impair"}, {"measurement": "impairment of anaerobic biofilm development as iron concentration is increased", "setting": "P. aeruginosa biofilm; Compound I 1339 μM, anaerobic, increasing iron levels in culture medium", "result": "becomes less effective"}, {"measurement": "effect on biofilm levels, higher concentration, aerobic", "setting": "P. aeruginosa biofilm; [6]", "result": "not under aerobic conditions"}, {"measurement": "effect on biofilm levels, higher concentration, anaerobic", "setting": "P. aeruginosa biofilm; [7]", "result": "significantly impair"}, {"measurement": "effect on aerobic growth", "setting": "P. aeruginosa; [4]", "result": "does not impair"}, {"measurement": "effect on anaerobic growth", "setting": "P. aeruginosa; [5]", "result": "does not impair"}, {"measurement": "effect on growth, higher concentration, aerobic", "setting": "P. aeruginosa; [6]", "result": "not under aerobic conditions"}, {"measurement": "effect on growth, higher concentration, anaerobic", "setting": "P. aeruginosa; [7]", "result": "significantly impair"}, {"measurement": "solubility in MMS medium", "setting": "solubility in MMS medium", "result": "low solubility"}]}
